Reference: ChEMBL document CHEMBL4699396, “Macrocyclic peptidomimetics as inhibitors of insulin-regulated aminopeptidase (IRAP)” (RSC Med Chem, 2020)

Tested on: Insulin-regulated aminopeptidase (Homo sapiens)
Test: Binding affinity to recombinant full length human IRAP expressed in HEK293T cells assessed as binding free energy

| deltaG | Structure (SMILES) |
| --- | --- |
| -10.7 kcal/mol | N[C@H]1CC/C=C\CC[C@@H](C(=O)NCc2ccccc2CC(=O)O)NC(=O)C[C@H](Cc2ccc(O)cc2)NC1=O |
| -12.4 kcal/mol | N[C@H]1CC/C=C/CC[C@@H](C(=O)NCc2ccccc2CC(=O)O)NC(=O)C[C@H](Cc2ccc(O)cc2)NC1=O |
